{"source": "paper PMC5739597", "about": "“Discovery and evaluation of triple inhibitors of VEGFR-2, TIE-2 and EphB4 as anti-angiogenic and anti-cancer agents” (Oncotarget, 2017)", "key": {"EGFR": {"target": "EGFR (Homo sapiens, UniProt P00533)", "sequence (P00533 25-1210, species assumed)": "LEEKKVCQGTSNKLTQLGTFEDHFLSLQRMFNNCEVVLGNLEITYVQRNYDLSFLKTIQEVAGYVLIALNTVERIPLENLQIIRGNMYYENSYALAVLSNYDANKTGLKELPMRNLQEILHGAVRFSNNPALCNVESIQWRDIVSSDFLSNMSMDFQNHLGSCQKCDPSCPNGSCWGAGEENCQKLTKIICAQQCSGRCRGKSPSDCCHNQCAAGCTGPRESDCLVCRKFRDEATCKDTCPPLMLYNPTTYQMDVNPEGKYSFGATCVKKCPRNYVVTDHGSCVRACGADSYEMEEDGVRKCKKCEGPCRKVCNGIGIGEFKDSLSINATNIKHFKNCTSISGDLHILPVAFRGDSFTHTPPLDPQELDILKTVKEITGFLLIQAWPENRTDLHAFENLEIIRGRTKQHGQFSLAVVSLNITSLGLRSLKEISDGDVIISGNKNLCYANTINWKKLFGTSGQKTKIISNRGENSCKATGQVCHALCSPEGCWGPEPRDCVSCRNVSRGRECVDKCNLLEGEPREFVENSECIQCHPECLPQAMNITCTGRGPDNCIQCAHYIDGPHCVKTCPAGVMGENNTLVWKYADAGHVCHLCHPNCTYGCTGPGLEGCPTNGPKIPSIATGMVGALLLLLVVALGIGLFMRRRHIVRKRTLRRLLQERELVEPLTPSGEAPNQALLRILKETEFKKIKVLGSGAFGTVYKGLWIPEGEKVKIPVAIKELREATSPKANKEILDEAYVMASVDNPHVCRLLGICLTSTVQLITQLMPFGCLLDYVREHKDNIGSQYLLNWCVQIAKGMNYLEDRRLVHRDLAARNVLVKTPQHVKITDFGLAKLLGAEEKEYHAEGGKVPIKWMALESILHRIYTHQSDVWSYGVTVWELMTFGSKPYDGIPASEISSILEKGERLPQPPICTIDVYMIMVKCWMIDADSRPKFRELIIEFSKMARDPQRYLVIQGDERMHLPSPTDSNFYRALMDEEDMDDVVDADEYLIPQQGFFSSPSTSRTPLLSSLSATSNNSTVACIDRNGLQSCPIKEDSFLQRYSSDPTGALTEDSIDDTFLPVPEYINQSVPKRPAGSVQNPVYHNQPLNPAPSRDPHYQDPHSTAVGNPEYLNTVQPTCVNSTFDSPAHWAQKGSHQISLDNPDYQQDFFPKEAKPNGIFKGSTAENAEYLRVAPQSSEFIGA", "experiment": "Kinase-Glo Plus RTK selectivity assay, EGFR", "type": "biochemical", "conditions": "10 μM ATP", "procedure": "(§1) A 50 μL reaction mixture contains 40 mM Tris, pH 7.4, 10 mM MgCl2, 0.1 mg/ml BSA, 1 mM DTT, 10 μM ATP, kinase and substrate (0.2 mg/mL Poly(Glu, Tyr)/10 μM ATP). The test compounds were diluted in 10% DMSO and 5 μL of the dilution was added to a 50 μL reaction so that the final concentration of DMSO is 1% in all of reactions. The assay was performed using Kinase-Glo Plus luminescence kinase assay kit. It measures kinase activity by quantitating the amount of ATP remaining in solution following a kinase reaction. The luminescent signal from the assay is correlated with the amount of ATP present and is inversely correlated with the amount of kinase activity. The IC50 values were calculated using nonlinear regression with normalized dose−response fit using Prism GraphPad software."}, "c-Kit": {"target": "c-Kit (Homo sapiens, UniProt P10721)", "sequence (P10721 26-976)": "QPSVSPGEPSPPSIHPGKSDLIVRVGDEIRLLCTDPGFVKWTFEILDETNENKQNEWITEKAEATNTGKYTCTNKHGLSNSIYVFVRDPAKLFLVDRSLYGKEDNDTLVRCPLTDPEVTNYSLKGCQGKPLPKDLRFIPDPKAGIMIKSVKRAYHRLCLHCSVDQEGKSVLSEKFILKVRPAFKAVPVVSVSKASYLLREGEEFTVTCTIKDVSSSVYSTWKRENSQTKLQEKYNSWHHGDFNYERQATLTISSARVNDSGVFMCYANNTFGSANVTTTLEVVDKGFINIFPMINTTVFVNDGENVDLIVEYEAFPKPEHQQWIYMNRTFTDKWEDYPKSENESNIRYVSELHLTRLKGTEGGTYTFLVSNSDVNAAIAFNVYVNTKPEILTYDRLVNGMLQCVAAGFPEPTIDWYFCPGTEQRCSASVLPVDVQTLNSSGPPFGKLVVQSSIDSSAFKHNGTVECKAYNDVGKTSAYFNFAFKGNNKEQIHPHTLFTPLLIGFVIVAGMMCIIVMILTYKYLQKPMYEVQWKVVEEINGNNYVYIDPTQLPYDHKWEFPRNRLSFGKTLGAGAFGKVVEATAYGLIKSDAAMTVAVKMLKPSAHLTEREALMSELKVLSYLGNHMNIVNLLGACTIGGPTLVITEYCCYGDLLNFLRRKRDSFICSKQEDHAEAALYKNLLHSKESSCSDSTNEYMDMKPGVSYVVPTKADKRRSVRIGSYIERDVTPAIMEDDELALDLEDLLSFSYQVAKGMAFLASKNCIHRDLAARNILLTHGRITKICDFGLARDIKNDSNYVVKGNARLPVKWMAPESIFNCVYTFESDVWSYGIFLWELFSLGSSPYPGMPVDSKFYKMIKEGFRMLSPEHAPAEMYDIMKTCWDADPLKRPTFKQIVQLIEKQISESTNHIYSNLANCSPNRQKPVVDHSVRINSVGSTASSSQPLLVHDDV", "experiment": "Kinase-Glo Plus RTK selectivity assay, c-Kit", "type": "biochemical", "conditions": "10 μM ATP", "procedure": "as §1"}, "VEGFR-2 [1]": {"target": "T1, VEGFR-2 (Homo sapiens, UniProt P35968)", "T1 sequence (P35968 20-1356)": "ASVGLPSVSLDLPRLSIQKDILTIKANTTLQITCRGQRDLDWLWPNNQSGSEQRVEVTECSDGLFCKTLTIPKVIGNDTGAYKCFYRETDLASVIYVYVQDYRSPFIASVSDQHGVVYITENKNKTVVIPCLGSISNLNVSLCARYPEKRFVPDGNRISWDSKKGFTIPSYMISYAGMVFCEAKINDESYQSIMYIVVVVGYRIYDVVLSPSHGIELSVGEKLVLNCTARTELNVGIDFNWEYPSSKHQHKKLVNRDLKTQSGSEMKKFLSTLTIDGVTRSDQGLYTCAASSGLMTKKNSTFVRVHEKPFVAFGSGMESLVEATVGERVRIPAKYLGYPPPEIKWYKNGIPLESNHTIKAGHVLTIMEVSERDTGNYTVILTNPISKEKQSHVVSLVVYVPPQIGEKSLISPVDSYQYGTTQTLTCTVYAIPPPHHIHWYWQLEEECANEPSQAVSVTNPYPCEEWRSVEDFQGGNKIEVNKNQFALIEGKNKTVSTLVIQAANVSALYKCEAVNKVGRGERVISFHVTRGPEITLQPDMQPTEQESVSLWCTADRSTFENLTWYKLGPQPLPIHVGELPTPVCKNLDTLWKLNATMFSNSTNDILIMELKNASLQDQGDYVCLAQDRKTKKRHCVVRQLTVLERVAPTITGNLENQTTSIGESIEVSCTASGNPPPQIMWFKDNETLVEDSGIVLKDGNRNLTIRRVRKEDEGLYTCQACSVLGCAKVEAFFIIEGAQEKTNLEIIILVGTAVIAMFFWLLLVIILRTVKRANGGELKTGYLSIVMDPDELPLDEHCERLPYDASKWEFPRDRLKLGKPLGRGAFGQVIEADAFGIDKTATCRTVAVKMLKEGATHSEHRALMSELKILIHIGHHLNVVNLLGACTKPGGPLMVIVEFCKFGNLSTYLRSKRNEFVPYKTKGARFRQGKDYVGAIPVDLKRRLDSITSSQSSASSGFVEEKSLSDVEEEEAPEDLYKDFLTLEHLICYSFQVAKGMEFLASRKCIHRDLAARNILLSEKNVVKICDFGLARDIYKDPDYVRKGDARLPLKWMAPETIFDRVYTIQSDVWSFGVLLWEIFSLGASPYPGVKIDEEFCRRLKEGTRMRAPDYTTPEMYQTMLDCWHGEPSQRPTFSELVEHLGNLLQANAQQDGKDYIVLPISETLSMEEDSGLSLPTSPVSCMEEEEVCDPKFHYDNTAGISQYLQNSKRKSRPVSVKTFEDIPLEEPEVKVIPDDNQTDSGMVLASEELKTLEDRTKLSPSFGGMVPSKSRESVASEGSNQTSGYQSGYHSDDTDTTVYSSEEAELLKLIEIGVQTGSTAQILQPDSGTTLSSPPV", "experiment": "VEGFR-2/cell membrane chromatography (CMC) affinity evaluation", "type": "binding", "procedure": "In previous studies, artificial cultures highly expressing VEGFR-2 on HEK293 cell lines were constructed. […] Chromatographic conditions: 10 mm×2.0 mm; flow rate0.6 mL/min; column temperature 37°C; mobile phase 5 mM PBS, pH 7.4; detection wavelength 270 nm.\nThe VEGFR-2 cell membrane stationary phase was prepared as previous reported. Aqueous ammonium acetate buffer solution (pH 7.4, 5 mM) was pumped at a flow rate of 0.2 mL/min as the mobile phase after VEGFR-2/CMC column was loaded onto the chromatography system at the temperature of 37°C. […] The mobile phase was 5.0 mM phosphate burred saline with a 0.6 mL/min flow rate at a column temperature of 37°C. The detected wavelength was 270 nm. The test compound was injected into the VEGFR-2/CMC column and their retention characteristics were identified to evaluate their affinity with VEGFR-2."}, "[2]": {"test_system": "human breast cancer cell lines (MCF-7)", "experiment": "Anti-proliferative MTT assay, MCF-7", "type": "cell-based", "conditions": "MCF7, 48 h", "procedure": "(§2) These RTKs play critical roles in the proliferation of various cancers. Therefore, RTKs inhibition generally translate well into anti-proliferation activity.\n(§3) Exponentially growing cells were harvested and plated in 96-well plates at a concentration of 1×10^4 cells/well per well, and then were incubated at 37°C for 24 h. […] Subsequently, 22 μL fresh MTT (5 mg/mL) was added to each well and incubated at 37°C for 4 h. […] DMSO was added to each well after supernatant was discarded. Absorbance values were determined by a microplate reader (Bio-Rad Instruments) at 490 nm. The IC50 values were calculated according to inhibition ratios."}, "[3]": {"test_system": "human pancreatic cancerous cell lines (PANC-1)", "experiment": "Anti-proliferative MTT assay, PANC-1", "type": "cell-based", "conditions": "48 h", "procedure": "as §2, §3"}, "[4]": {"test_system": "human hepatic cancer cell lines (7721)", "experiment": "Anti-proliferative MTT assay, 7721", "type": "cell-based", "conditions": "48 h", "procedure": "as §2, §3"}, "MCF-7 xenograft": {"test_system": "MCF-7 xenograft", "experiment": "In vivo MCF-7 xenograft mice model", "conditions": "ig; for Final body weight / Tumor growth inhibition / Final tumor weight: 21 days; for Final tumor weight: control 0.848±0.5; for Initial body weight: before treatment", "experimental": "Six-week old female BALB/c mice were purchased from Shanghai Laboratory Animal center of the Chinese Academy of Sciences and housed under aseptic and ventilated condition. The mice were inoculated by subcutaneous injection with MCF-7 cancer cells suspended in 5% saline. Tumor volume and weight were measured on alternate days. Body weights were monitored as an indicator of toxicity. […] Treatment started from the next day and continued for 21 days. All mice were killed at the end of the experiment, and subcutaneous tumors were removed and weighted."}, "VEGFR-2 [5]": {"target": "T1, VEGFR-2", "experiment": "ADP-Glo in vitro RTK inhibition assay, VEGFR-2", "type": "biochemical", "conditions": "ATP 50 μM", "procedure": "In order to validate the direct effect of title compounds on VEGFR-2, Tie-2, and EphB4 kinases, we performed in vitro assay using the ADP-Glo Kinase Assay Kit (Promega, Wisconsin, USA).\nThe kinase assay was performed in a reaction mixture of final volume of 10 μL. […] The plate was incubated at 30°C for 1 h. After the plate was cooled at room temperature for 5 min, 5 μL of ADP-Glo reagent was added into each well to stop the reaction and consume the remaining […] within 40 min. At the end, 10 μL of kinase detection reagent was added into the well and incubated for 30 min to produce a luminescence signal. […] The assay plate was incubated at 30°C for 4 h. After the plate was cooled at room temperature for 5 min, 5 μL of ADP-Glo reagent was added into each well to stop the reaction and consume the remaining […] within 1 h. At the end, 10 μL of kinase detection reagent was added into each well and incubated for 30 min to produce a luminescence signal. The luminescence was read by VICTOR-X multi-label plate reader."}, "FGFR-4": {"target": "FGFR-4 (Homo sapiens, UniProt P22455)", "sequence (P22455 22-802, species assumed)": "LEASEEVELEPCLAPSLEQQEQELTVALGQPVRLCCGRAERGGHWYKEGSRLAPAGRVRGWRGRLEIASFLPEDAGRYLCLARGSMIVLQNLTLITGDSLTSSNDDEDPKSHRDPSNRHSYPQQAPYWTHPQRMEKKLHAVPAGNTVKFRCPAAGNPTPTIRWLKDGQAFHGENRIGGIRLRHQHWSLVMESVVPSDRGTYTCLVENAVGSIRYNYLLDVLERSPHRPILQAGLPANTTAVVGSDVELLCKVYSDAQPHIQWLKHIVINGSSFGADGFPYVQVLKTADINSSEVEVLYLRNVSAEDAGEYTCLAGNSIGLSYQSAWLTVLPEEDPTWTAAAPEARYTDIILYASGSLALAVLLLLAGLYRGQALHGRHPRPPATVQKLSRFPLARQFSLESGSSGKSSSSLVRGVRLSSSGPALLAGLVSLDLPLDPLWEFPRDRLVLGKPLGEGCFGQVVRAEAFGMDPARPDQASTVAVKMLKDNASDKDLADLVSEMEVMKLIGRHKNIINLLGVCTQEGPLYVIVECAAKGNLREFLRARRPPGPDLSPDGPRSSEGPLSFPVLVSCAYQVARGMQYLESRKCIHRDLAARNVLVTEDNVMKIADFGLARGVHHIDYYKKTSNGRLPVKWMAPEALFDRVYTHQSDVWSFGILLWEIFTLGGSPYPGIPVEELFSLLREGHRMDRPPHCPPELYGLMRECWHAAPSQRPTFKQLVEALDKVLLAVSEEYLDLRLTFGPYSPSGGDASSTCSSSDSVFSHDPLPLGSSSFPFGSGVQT", "experiment": "Kinase-Glo Plus RTK selectivity assay, FGFR-4", "type": "biochemical", "conditions": "10 μM ATP", "procedure": "as §1"}, "[6]": {"test_system": "human colon carcinoma cell line (LOVO)", "experiment": "Anti-proliferative MTT assay, LOVO", "type": "cell-based", "conditions": "48 h", "procedure": "as §2, §3"}, "[7]": {"test_system": "human lung cancer cell (A549)", "experiment": "Anti-proliferative MTT assay, A549", "type": "cell-based", "conditions": "48 h", "procedure": "as §2, §3"}, "[8]": {"test_system": "human cervical cancer cell line (HeLa)", "experiment": "Anti-proliferative MTT assay, HeLa", "type": "cell-based", "conditions": "48 h", "procedure": "as §2, §3"}, "[9]": {"test_system": "human epidermoid carcinoma cell line (A431)", "experiment": "Anti-proliferative MTT assay, A431", "type": "cell-based", "conditions": "A-431, 48 h", "procedure": "as §2, §3"}, "[10]": {"test_system": "human embryonic kidney 293 (HEK293)", "experiment": "Cytotoxicity on normal cells, HEK293", "type": "cell-based", "conditions": "MTT, 48 h, read-out: Anti-proliferative activity IC50, HEK293 (normal cells)", "procedure": "In order to determine the anti-angiogenic effect of these multi-target inhibitors, we evaluated their effect on HECs (EA.hy926) viability using cell counting kit-8 (CCK-8) method.\nas §2, §3"}}, "note": "Values joined by “and” are separate entries in the source; they are usually repeats but may differ in a detail not shown here. Equal values may be shown once."}
{"smiles": "O=C(Nc1ccc(-c2ccc3c(=O)[nH]cnc3c2)cc1)Nc1ccc(F)c(F)c1", "note": "[QDAU5, 1-(3,4-difluorophenyl)-3-(4-(4-oxo-3,4-dihydroquinazolin-7-yl)phenyl)urea]", "values": [{"measurement": "IC50", "setting": "EGFR", "result": 0.0988, "unit": "µM"}, {"measurement": "IC50", "setting": "c-Kit", "result": 0.142, "unit": "µM"}, {"measurement": "Direct competitive assay on VEGFR-2/CMC (change in K' of multi-target RTK inhibitors)", "setting": "VEGFR-2 [1]; QDAU5 at increasing concentrations in the mobile phase", "result": "interacted with the same site of VEGFR-2"}, {"measurement": "Retention time on VEGFR-2/cell membrane stationary phase column", "setting": "VEGFR-2 [1]; flow rate 0.6 mL/min, 37°C, 5 mM PBS pH 7.4, 270 nm", "result": "38 min and 38.0 min"}, {"measurement": "IC50", "setting": "[2]", "result": 2.12, "unit": "µM"}, {"measurement": "IC50", "setting": "[3]", "result": 24.9, "unit": "µM"}, {"measurement": "IC50", "setting": "[4]", "result": 58.7, "unit": "µM"}, {"measurement": "Final body weight", "setting": "MCF-7 xenograft; 20 mg/kg daily", "result": "17.4 ± 1.0", "unit": "g"}, {"measurement": "Tumor growth inhibition", "setting": "MCF-7 xenograft; 20 mg/kg daily", "result": 7.2, "unit": "%"}, {"measurement": "Final tumor weight", "setting": "MCF-7 xenograft; 20 mg/kg daily", "result": "0.787 ± 0.7", "unit": "g"}, {"measurement": "Initial body weight", "setting": "MCF-7 xenograft; 20 mg/kg", "result": "18.7 ± 0.8", "unit": "g"}, {"measurement": "Final body weight", "setting": "MCF-7 xenograft; 40 mg/kg daily", "result": "18.9 ± 1.2", "unit": "g"}, {"measurement": "Tumor growth inhibition", "setting": "MCF-7 xenograft; 40 mg/kg daily, 40 mg/kg", "result": 24, "unit": "%"}, {"measurement": "Final tumor weight", "setting": "MCF-7 xenograft; 40 mg/kg daily", "result": "0.642 ± 0.8", "unit": "g"}, {"measurement": "Initial body weight", "setting": "MCF-7 xenograft; 40 mg/kg", "result": "18.4 ± 0.6", "unit": "g"}, {"measurement": "Final body weight", "setting": "MCF-7 xenograft; 80 mg/kg daily", "result": "16.1 ± 1.0", "unit": "g"}, {"measurement": "Tumor growth inhibition", "setting": "MCF-7 xenograft; 80 mg/kg daily, 80 mg/kg", "result": 47, "unit": "%"}, {"measurement": "Final tumor weight", "setting": "MCF-7 xenograft; 80 mg/kg daily", "result": "0.449 ± 0.9", "unit": "g"}, {"measurement": "Initial body weight", "setting": "MCF-7 xenograft; 80 mg/kg", "result": "18.3 ± 0.7", "unit": "g"}, {"measurement": "IC50", "setting": "VEGFR-2 [5]", "result": 0.00077, "unit": "µM"}, {"measurement": "IC50", "setting": "FGFR-4", "result": "> 0.5", "unit": "µM"}, {"measurement": "IC50", "setting": "[6]", "result": 4.99, "unit": "µM"}, {"measurement": "IC50", "setting": "[7]", "result": 8.37, "unit": "µM"}, {"measurement": "IC50", "setting": "[8]", "result": 5.56, "unit": "µM"}, {"measurement": "IC50", "setting": "[9]", "result": 16.9, "unit": "µM"}, {"measurement": "IC50", "setting": "[10]", "result": "> 100", "unit": "µM"}]}
